# Data taken from US10653688B2, “6-(6-membered heteroaryl and aryl)isoquinolin-3-yl carboxamides and preparation and use thereof” (Samumed, LLC, priority 2017, dated 2020).
# Read-outs that look alike come from different tables or passages of the source.
# Tests used:
# [1] = target: recombinant GSK3β kinase (Homo sapiens (Human), UniProt P49841); experiment: GSK3β kinase assay (Ser/Thr 09 peptide Z-lyte, FRET); assay type: biochemical;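 note: FRET read-out as coumarin over fluorescein emission ratio, compounds incubated one hour at room temperature, IC50 from dose-response curve fit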
# [2] = tested on: Tau phosphorylation at Ser396 (pSer396) in SH-SY5Y cells; experiment: Tau phosphorylation at Ser396 (pSer396) cell assay, ELISA/western blot; assay type: cell-based, human; details: Homo sapiens
# Protocol: SH-SY5Y cells (human neuroblastoma) were cultured in DMEM/F-12 medium supplemented with 15% FBS, Non-essential Amino Acid and Penicillin/Streptomycin. Two days before treatment, cells were seeded onto 96 well plates at 5×10^4 cells/well.
# The above synthesized compounds were screened using the cell assay procedure to assess decrease Tau phosphorylation at Ser396 (pSer396) described below.
# DMSO-resuspended compounds were dispensed to 8 wells as a serial titration from 10 μM to 4.6 nM final in medium and cells were exposed overnight (16-18 h) in a humidified incubator at 36.6c before harvest.
# Cells were lysed with RIPA buffer complemented with phosphatase and protease inhibitors then lysates were spun down at 12,000 g for 10 min to remove any cellular debris. Lysates are then either directly tested for pSer396 by ELISA (Life Technology, Kit KHB7031) or loaded on NuPage Bis-Tris gels for western blot analysis. Colorimetric detection of ELISA signal is performed by Cytation3 plate reader (Biotek) and the chemiluminescence signal for HRP-linked antibodies used in western blotting is detected using a Carestream Image Station. The same pSer396 antibody is used for detection of pTau in both assays.
# Blot densitometry for pSer396 and β-actin were analyzed using ImageJ (NIH) and pSer396 Tau ELISA signal was used to plot, draw the curve fitting, and determine each compounds EC50 in Prism (GraphPad).
# [3] = tested on: SW480 colon carcinoma cells; experiment: Cell viability assay (CellTiter-Glo); assay type: cell-based, human; details: Homo sapiens; for EC50: 96 h, four days, CellTiter-Glo; for inhibition at 10 µM: read-out: percent inhibition at 10 μM (given for EC50 >10 μM), 10 μM
# [4] = GSK3β kinase, head says EC50, method says IC50, ATP 46 μM
# [5] = SH-SY5Y cells, overnight (16-18 h), read-out: pSer396 Tau EC50
# Chain of recombinant GSK3β kinase (P49841 whole entry): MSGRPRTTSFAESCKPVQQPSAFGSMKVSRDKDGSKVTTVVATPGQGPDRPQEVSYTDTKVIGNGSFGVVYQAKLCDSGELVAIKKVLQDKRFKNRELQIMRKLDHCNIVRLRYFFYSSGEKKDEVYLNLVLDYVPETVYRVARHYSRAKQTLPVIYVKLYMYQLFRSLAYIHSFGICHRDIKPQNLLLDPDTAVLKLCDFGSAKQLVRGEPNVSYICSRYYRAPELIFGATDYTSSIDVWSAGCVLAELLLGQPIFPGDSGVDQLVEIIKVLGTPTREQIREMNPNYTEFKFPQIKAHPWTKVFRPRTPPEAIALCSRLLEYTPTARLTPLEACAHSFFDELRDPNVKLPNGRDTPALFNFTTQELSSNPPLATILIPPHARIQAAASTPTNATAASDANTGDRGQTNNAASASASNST
Compound,"EC50 [1, 4]","EC50 [2, 5]",EC50 [3],"EC50 ([2]; SH-SY5Y, read-out: pSer396 Tau EC50 (μM))",inhibition at 10 µM [3],EC50 [1]
"O=C(CN1CCCC1)Nc1cc2cc(-c3cccnc3)ccc2cn1 [Compound 7, N-(6-(Pyridin-3-yl)isoquinolin-3-yl)-2-(pyrrolidin-1-yl)acetamide]",247 nM,2.2 µM,3530 nM,–,–,–
"O=C(Nc1cc2cc(-c3cccnc3)ccc2cn1)C12CCN(CC1)CC2 [Compound 9, N-(6-(Pyridin-3-yl)isoquinolin-3-yl)quinuclidine-4-carboxamide]",–,–,> 10000 nM,> 10 µM,26%,–
"O=C(CN1CCOCC1)Nc1cc2cc(-c3cccnc3)ccc2cn1 [Compound 10, 2-Morpholino-N-(6-(pyridin-3-yl)isoquinolin-3-yl)acetamide]",525 nM,2.9 µM,> 10000 nM,–,15.4%,–
"CN1CCN(CC(=O)Nc2cc3cc(-c4cccnc4)ccc3cn2)CC1 [Compound 11, 2-(4-Methylpiperazin-1-yl)-N-(6-(pyridin-3-yl)isoquinolin-3-yl)acetamide]",1120 nM,5.8 µM,> 10000 nM,–,25.6%,–
"CN1CCCN(CC(=O)Nc2cc3cc(-c4cccnc4)ccc3cn2)CC1 [Compound 12, 2-(4-Methyl-1,4-diazepan-1-yl)-N-(6-(pyridin-3-yl)isoquinolin-3-yl) acetamide]",722 nM,2.3 µM,> 10000 nM,–,39.3%,–
"CN1CCN(C[C@H]2CC[C@H](C(=O)Nc3cc4cc(-c5cncc(F)c5)ccc4cn3)CC2)CC1 [Compound 17, trans-N-(6-(5-Fluoropyridin-3-yl)isoquinolin-3-yl)-4-((4-methylpiperazin-1-yl)methyl)cyclohexane-1-carboxamide]",974 nM,4.6 µM,3470 nM,–,–,–
"CN1CCN(CC(=O)Nc2cc3cc(-c4ccc(F)nc4)ccc3cn2)CC1 [Compound 21, N-(6-(6-Fluoropyridin-3-yl)isoquinolin-3-yl)-2-(4-methylpiperazin-1-yl) acetamide]",3200 nM,> 10 µM,> 10000 nM,–,50%,–
"CN1CCC(C(=O)Nc2cc3cc(-c4cncc(N5CCCC5)c4)ccc3cn2)CC1 [Compound 50, 1-Methyl-N-(6-(5-(pyrrolidin-1-yl)pyridin-3-yl)isoquinolin-3-yl)piperidine-4-carboxamide]",725 nM,> 10 µM,2200 nM,–,–,–
"[2H]c1nc([2H])c(-c2ccc3cnc(NC(=O)CN4CCN(C)CC4)cc3c2)c([2H])c1[2H] [Compound 61, 2-(4-Methylpiperazin-1-yl)-N-(6-(pyridin-3-yl-d4)isoquinolin-3-yl)acetamide]",–,9.8 µM,> 10000 nM,–,21.6%,1030 nM
"[2H]c1nc([2H])c(-c2ccc3cnc(NC(=O)CN4CCOCC4)cc3c2)c([2H])c1[2H] [Compound 62, 2-Morpholino-N-(6-(pyridin-3-yl-d4)isoquinolin-3-yl)acetamide]",–,4.8 µM,> 10000 nM,–,16.6%,455 nM
"O=C(CN1CCOCC1)Nc1cc2cc(-c3ccnnc3)ccc2cn1 [Compound 67, 2-morpholino-N-(6-(pyridazin-4-yl)isoquinolin-3-yl)acetamide]",–,1.1 µM,> 10000 nM,–,19.2%,68 nM
"O=C(Nc1cc2cc(-c3cnccn3)ccc2cn1)[C@H]1C[C@H](N2CCOCC2)C1 [Compound 69, trans-3-Morpholino-N-(6-(pyrazin-2-yl)isoquinolin-3-yl)cyclobutane-1-carboxamide]",–,2.9 µM,> 10000 nM,–,19.5%,283 nM
"O=C(Nc1cc2cc(-c3cnccn3)ccc2cn1)[C@H]1CC[C@H](N2CCOCC2)CC1 [Compound 71, trans-4-Morpholino-N-(6-(pyrazin-2-yl)isoquinolin-3-yl)cyclohexane-1-carboxamide]",–,3.3 µM,> 10000 nM,–,14.6%,1020 nM
"O=C(Nc1cc2cc(-c3cnccn3)ccc2cn1)[C@H]1CC[C@H](CN2CC(F)C2)CC1 [Compound 72, trans-4-((3-Fluoroazetidin-1-yl)methyl)-N-(6-(pyrazin-2-yl)isoquinolin-3-yl)cyclohexane-1-carboxamide]",–,7.7 µM,> 10000 nM,–,35.6%,1220 nM
"CN1CCN(C[C@H]2CC[C@H](C(=O)Nc3cc4cc(-c5cnccn5)ccc4cn3)CC2)CC1 [Compound 73, trans-4-((4-Methylpiperazin-1-yl)methyl)-N-(6-(pyrazin-2-yl)isoquinolin-3-yl)cyclohexane-1-carboxamide]",–,> 10 µM,> 10000 nM,–,50.7%,828 nM
"O=C(Nc1cc2cc(-c3cnccn3)ccc2cn1)C1CCN(CCF)CC1 [Compound 77, 1-(2-Fluoroethyl)-N-(6-(pyrazin-2-yl)isoquinolin-3-yl)piperidine-4-carboxamide]",1070 nM,> 10 µM,> 10000 nM,–,33.8%,–
"O=C(Nc1cc2cc(-c3cnccn3)ccc2cn1)C1CCN(C2COC2)CC1 [Compound 78, 1-(Oxetan-3-yl)-N-(6-(pyrazin-2-yl)isoquinolin-3-yl)piperidine-4-carboxamide]",804 nM,> 10 µM,> 10000 nM,–,27.7%,–
"CC(C)Nc1cncc(-c2ccc3cnc(NC(=O)C4CCN(C)CC4)cc3c2)n1 [Compound 88, N-(6-(6-(Isopropylamino)pyrazin-2-yl)isoquinolin-3-yl)-1-methylpiperidine-4-carboxamide]",26 nM,0.129 µM,364 nM,–,–,–
